Experimental data taken from patent US8071142B2, “Anti-bacterial use of extract from Morus australis poir. and compound kuwanon h” (Medical and Pharmaceutical Industry Technology and …, priority 2008, dated 2011).
In brackets after ≈: the same amount, converted by molar mass. Like-named read-outs stand apart in the source and are kept apart here.

Tests used:
Type in all cases: cell-based
[1] = tested on: Staphylococcus aureus (Smith); test: Anti-microbial test, MIC by broth dilution method, Staphylococcus aureus (Smith); settings: for MIC: Staphylococcus aureus, read-out: MIC SA (Smith)
Procedure: (§1) Staphylococcus aureus (Smith), and Staphylococcus aureus, Methicillin Resistant (ATCC 33591), In Vitro Bacteria
(§2) Minimum inhibitory concentration (MIC) of sample on Staphylococcus aureus (Smith) and Staphylococcus aureus, Methicillin Resistant (ATCC 33591) was determined by the broth dilution method [Edwards J. R. et al. In vitro antibacterial activity of SM-7338, a carbapenem antibiotic with stability to dehydropeptidase I. Antimicrobial Agents Chemotherapy. 33: pp. 215-222, 1989]. The test substance was dissolved (generally 100% DMSO) and serially diluted in solvent to desired stock concentrations. For each concentration tested, a 0.01 ml aliquot (1% DMSO final concentration) was added to a 48-well plate after which 0.99 ml of Mueller-Hinton Broth (DIFCO, USA.) with 1-5×10^5 CFU/ml of Staphylococcus aureus (Smith) or Staphylococcus aureus, Methicillin Resistant (ATCC 33591) was added. Thus, final maximal concentration of DMSO was 1% and the initial test substance concentration was 100 μg/ml or 30 μM. The plates were incubated at 37° C. for 20 hours and then visually examined and scored positive (+) for inhibition of growth or turbidity or negative (−) for no effect upon growth or turbidity. Vehicle-control and active reference agents were used as blank and positive controls, respectively. Each concentration was evaluated in duplicate.

[2] = tested on: Staphylococcus aureus, Methicillin Resistant (ATCC 33591); test: Anti-microbial test, MIC by broth dilution method, methicillin resistant Staphylococcus aureus; settings: for MIC: Staphylococcus aureus, ATCC 33591 / MRSA, read-out: MIC MRSA
Procedure: as §1, §2

[3] = tested on: Streptococcus pneumoniae (ATCC 6301); test: Anti-microbial test, MIC by broth dilution method, Streptococcus pneumoniae; settings: for MIC: Streptococcus pneumoniae, read-out: MIC SP
Procedure: (§3) Streptococcus pneumoniae (ATCC 6301) and Streptococcus pneumoniae (Erythromycin and Ampicillin Res. Clin. Isol.), In Vitro Bacteria
(§4) Minimum inhibitory concentration (MIC) of sample on Streptococcus pneumoniae and Streptococcus pneumoniae (Erythromycin and Ampicillin Res. Clin. Isol.) was determined by the broth dilution method [Edwards J. R. et al. In vitro antibacterial activity of SM-7338, a carbapenem antibiotic with stability to dehydropeptidase I. Antimicrobial Agents Chemotherapy. 33: pp. 215-222, 1989.]. The test substance was dissolved (generally 100% DMSO) and serially diluted in solvent to desired stock concentrations. For each concentration tested, a 0.01 ml aliquot (1% DMSO final concentration) was added to a 48-well plate after which 0.99 ml of Tryptic Soy Broth (DIFCO, U.S.A.) containing 7% fetal bovine serum with 1-5×10^5 CFU/ml of Streptococcus pneumoniae (ATCC 6301) or Streptococcus pneumoniae (Erythromycin and Ampicillin Res. Clin. Isol.) was added. Thus, final maximal concentration of DMSO was 1% and the initial test substance concentration was 100 μg/ml or 30 μM. The plates were incubated at 37° C. for 20 hours and then visually examined and scored positive (+) for inhibition of growth or turbidity or negative (−) for no effect upon growth or turbidity. Vehicle-control and active reference agents were used as blank and positive controls, respectively. Each concentration was evaluated in duplicate.

[4] = tested on: Streptococcus pneumoniae (Erythromycin and Ampicillin Res. Clin. Isol.); test: Anti-microbial test, MIC by broth dilution method, resistant Streptococcus pneumoniae; settings: for MIC: Streptococcus pneumoniae, read-out: MIC SP (EM & AM Res.)
Procedure: as §3, §4

[5] = Mueller-Hinton Broth, 37° C., 20 hours, 1% DMSO, visual growth/turbidity
[6] = clinical isolates, Tryptic Soy Broth with 7% fetal bovine serum, 37° C., 20 hours, 1% DMSO
[7] = ATCC6301, Tryptic Soy Broth with 7% fetal bovine serum, 37° C., 20 hours, 1% DMSO

Compound	MIC ([1]; 20 h)	MIC ([2]; 20 h)	MIC ([3]; ATCC6301, 20 h)	MIC [1, 5]	MIC [2, 5]	MIC [3, 7]	MIC [4, 6]	also measured
CC(C)=CCC/C(C)=C/Cc1c(O)ccc2cc(-c3cc(O)cc(O)c3CC=C(C)C)oc12 [P3-4]	3 µg/mL (≈ 6.72 µM)	100 µg/mL (≈ 224 µM)	30 µg/mL (≈ 67.2 µM)					MIC ([4]; 20 h): 10 µg/mL (≈ 22.4 µM)
CC1=CC(c2c(O)cc(-c3cc4ccc(O)cc4o3)cc2O)C(C(=O)c2ccc(O)cc2O)[C@H](c2ccc(O)cc2O)C1 (stereo partly drawn) [P2-1]	3 µg/mL (≈ 5.17 µM)	> 100 µg/mL	100 µg/mL (≈ 172 µM)					MIC ([4]; 20 h): 30 µg/mL (≈ 51.7 µM)
Gentamicin [reference compound]								MIC SA (Smith) [1, 5]: 0.1 µg/mL; MIC MRSA [2, 5]: 1 µg/mL; MIC on MRSA relative to MIC on SA (Smith) ([2]; ratio MRSA / SA (Smith)): 10 times; MIC SP ([3]; Tryptic Soy Broth with 7% fetal bovine serum, 37° C., 20 hours, 1% DMSO): 100 µg/mL; MIC SP (EM & AM Res.) [4, 6]: 100 µg/mL
CC(C)=CCCC1=CC(c2c(O)cc3c(c2O)C(=O)CC(c2ccc(O)cc2O)O3)C(C(=O)c2ccc(O)cc2O)C(c2ccc(O)cc2O)C1 (stereo not drawn) [P3-1]				1 µg/mL (≈ 1.44 µM)	3 µg/mL (≈ 4.32 µM)	30 µg/mL (≈ 43.2 µM)	10 µg/mL (≈ 14.4 µM)	
CC(C)=CCc1c(-c2ccc(O)cc2O)oc2c3c(cc(O)c2c1=O)OC(C)(C)C=C3 [P3-3, 2-(2,4-dihydroxy-phenyl)-5-hydroxy-8,8-dimethyl-3-(3-methyl-but-2-enyl)-8H-pyrano[2,3-f]chromen-4-one]				10 µg/mL (≈ 23.8 µM)	100 µg/mL (≈ 238 µM)	100 µg/mL (≈ 238 µM)	30 µg/mL (≈ 71.4 µM)	
CC(C)=CCc1c(-c2ccc(O)cc2O)oc2c(C3C=C(C)C[C@@H](c4ccc(O)cc4O)C3C(=O)c3ccc(O)cc3O)c(O)cc(O)c2c1=O (stereo partly drawn) [P2-2]	3 µg/mL (≈ 4.33 µM)	> 100 µg/mL	30 µg/mL (≈ 43.3 µM)				30 µg/mL (≈ 43.3 µM)	
CC(C)=CCc1c(O)ccc(C(=O)C2C(c3c(O)cc(O)c4c(=O)c(CC=C(C)C)c(-c5ccc(O)cc5O)oc34)C=C(C)CC2c2ccc(O)cc2O)c1O (stereo not drawn) [P3-2, 8-[6-[2,4-dihydroxy-3-(3-methyl-but-2-enyl)-benzoyl]-5-(2,4-dihydroxy-phenyl)-3-methyl-cyclohex-2-enyl]-2-(2,4-dihydroxy-phenyl)-5,7-dihydroxy-3-(3-methyl-but-2-enyl)-chromen-4-one]				0.3 µg/mL (≈ 0.394 µM)	0.3 µg/mL (≈ 0.394 µM)	10 µg/mL (≈ 13.1 µM)	10 µg/mL (≈ 13.1 µM)	
CC1(C)S[C@@H]2[C@H](NC(=O)[C@H](N)c3ccccc3)C(=O)N2[C@H]1C(=O)O [Ampicillin, reference compound]				0.1 µg/mL (≈ 0.286 µM)	30 µg/mL (≈ 85.9 µM)	0.01 µg/mL (≈ 0.0286 µM)	3 µg/mL (≈ 8.59 µM)	
